# Measured values taken from patent publication US9707234B2, “Spirocyclic hetercycle compounds useful as HIV integrase inhibitors” (MERCK SHARP & DOHME CORP., priority 2013, dated 2017).
# Where two headings read alike, the source gives them in different places.
# Tested on: HIV-1 (H9IIIB or NL4-3 virus) replication in MT4-GFP cells
# Test: microbe, parasite or virus in culture
# Format: cell-based
# Conditions: inhibition of reproductive ratio R0, 48-72 h post-infection
# [1] = Human immunodeficiency virus 1, NL43, MT4-GFP cells infected with HIV-1, 100% normal human serum, read-out: ViKinG IP (nM) with 100% NHS
# [2] = Human immunodeficiency virus 1, NL43, MT4-GFP cells infected with HIV-1, serum free conditions (0% NHS), read-out: ViKinG IP (nM) with 0% NHS
# [3] = Human immunodeficiency virus 1, NL43, MT4-GFP cells infected with HIV-1, 10% normal human serum, read-out: ViKinG IP (nM) with 10% NHS
# [4] = MT4-GFP cells infected with HIV-1, serum free conditions (0% NHS), read-out: ViKinG IP (nM) with 0% NHS
# [5] = MT4-GFP cells infected with HIV-1, 100% normal human serum, read-out: ViKinG IP (nM) with 100% NHS
SMILES,IC50 [1],IC50 [2],IC50 [3],IC50 [4],"IC50 (MT4-GFP cells infected with HIV-1, 10% normal human serum, read-out: ViKinG IP (nM) with 10% NHS)",IC50 [5]
COCCN1C(=O)c2c(O)c(=O)c(C(=O)NCc3ccc(F)cc3F)cn2CC12CCNCC2 [Compound 87],98 nM,16 nM,–,–,–,–
CN1C(=O)c2c(O)c(=O)c(C(=O)NCc3ccc(F)cc3F)cn2CC12CCNCC2 [Compound 88],97 nM,10.3 nM,–,–,–,–
COCCCN1C(=O)c2c(O)c(=O)c(C(=O)NCc3ccc(F)cc3F)cn2CC12CCNCC2 [Compound 89],87 nM,16.1 nM,–,–,–,–
CN1C(=O)c2c(O)c(=O)c(-c3cnn(Cc4ccc(F)cc4F)c3)cn2CC12CCOC2 (stereo not drawn) [Compound 90],123 nM,34.1 nM,–,–,–,–
CCOC(=O)N1CCC2(CC1)N(CC)C(=O)c1c(O)c(=O)c(-c3cnn(Cc4ccc(F)cc4F)c3)c(CO)n1N2C [Compound 92],3650 nM,159 nM,–,–,–,–
CN1C(=O)c2c(O)c(=O)c(-c3nnc(Cc4ccc(F)cc4F)s3)cn2CC12CCNCC2 [Compound 93],–,73.9 nM,114 nM,–,–,–
CCOC(=O)N1CCC2(CC1)Cn1cc(-c3nnc(Cc4ccc(F)cc4F)s3)c(=O)c(O)c1C(=O)N2C [Compound 94],116 nM,10.6 nM,–,–,–,–
CCOC(=O)N1CCC2(CC1)Cn1cc(-c3nnc(Cc4ccc(F)cc4F)s3)c(=O)c(O)c1C(=O)N2CC [Compound 95],104 nM,11.6 nM,–,–,–,–
CCOC(=O)N1CCC2(CC1)Cn1cc(-c3nnc(Cc4ccc(F)cc4F)s3)c(=O)c(O)c1C(=O)N2 [Compound 96],2240 nM,69.3 nM,–,–,–,–
O=C1c2c(O)c(=O)c(-c3nnc(Cc4ccc(F)cc4F)s3)cn2CC2(CCOC2)N1CCO (stereo not drawn) [Compound 97],1050 nM,41.7 nM,–,–,–,–
O=C1NC2(CCOCC2)Cn2cc(-c3nnc(Cc4ccc(F)cc4F)s3)c(=O)c(O)c21 [Compound 98],2030 nM,91.6 nM,–,–,–,–
CCN1C(=O)c2c(O)c(=O)c(-c3nnc(Cc4ccc(F)cc4F)s3)cn2CC12CCOCC2 [Compound 99],870 nM,40.9 nM,–,–,–,–
CCC(c1nnc(-c2cn3c(c(O)c2=O)C(=O)N(CC)C2(CCOCC2)C3)s1)c1ccc(F)cc1F (stereo not drawn) [Compound 100],704 nM,29.2 nM,–,–,–,–
CN1C(=O)c2c(O)c(=O)c(-c3nnc(Cc4ccc(F)cc4F)s3)cn2CC12CCOC2 (stereo not drawn) [Compound 101],70 nM,4.6 nM,–,–,–,–
CC(c1nnc(-c2cn3c(c(O)c2=O)C(=O)N(C)C2(CCOC2)C3)s1)c1ccc(F)cc1F (stereo not drawn) [Compound 102],85 nM,6.8 nM,–,–,–,–
CN1C(=O)c2c(O)c(=O)c(C(=O)NCc3ccc(F)cc3F)cn2N(C)C12CCOC2 (stereo not drawn) [Compound 103],114 nM,–,6 nM,1.7 nM,–,–
CN1C(=O)c2c(O)c(=O)c(C(=O)NCc3ccc(F)cc3F)cn2N(C)C12CCOC2 (stereo not drawn) [Compound 104],–,–,–,0.8 nM,4 nM,87 nM
COCCCN1C(=O)c2c(O)c(=O)c(C(=O)NCc3ccc(F)cc3F)cn2N(C)C12CCOCC2 [Compound 141],71 nM,2.3 nM,–,–,–,–
CCOCCN1C(=O)c2c(O)c(=O)c(C(=O)NCc3ccc(F)cc3F)cn2N(C)C12CCOCC2 [Compound 142],171 nM,1.3 nM,13 nM,–,–,–
CN1C(=O)c2c(O)c(=O)c(C(=O)NCc3ccc(F)cc3F)cn2N(C)C12COC2 [Compound 143],78 nM,1.4 nM,7 nM,–,–,–
CCN1C(=O)c2c(O)c(=O)c(C(=O)NCc3ccc(F)cc3F)cn2N(C)C12COC2 [Compound 144],591 nM,1.5 nM,60 nM,–,–,–
COCCCN1C(=O)c2c(O)c(=O)c(C(=O)NCc3ccc(F)cc3F)cn2N(C)C12COC2 [Compound 145],174 nM,1.4 nM,–,–,–,–
CCOCCN1C(=O)c2c(O)c(=O)c(C(=O)NCc3ccc(F)cc3F)cn2N(C)C12COC2 [Compound 146],485 nM,10.9 nM,–,–,–,–
CN1C(=O)c2c(O)c(=O)c(C(=O)NCc3ccc(F)cc3F)cn2N(CCO)C12CCOC2 (stereo not drawn) [Compound 147],–,1.6 nM,–,–,–,74 nM
CN1C(=O)c2c(O)c(=O)c(C(=O)NCc3ccc(F)cc3F)cn2N(CCO)C12CCOC2 (stereo not drawn) [Compound 148],–,–,–,1.2 nM,–,33 nM
CCN1C(=O)c2c(O)c(=O)c(C(=O)NCc3ccc(F)cc3F)cn2N(C)C12CCNCC2 [Compound 173],52 nM,3.2 nM,–,–,–,–
